Key:
[1] = molecular target: T1, BRD4 long isoform (Homo sapiens, UniProt O60885); test: BRD4 degradation assay (Western blot, MDA-MB-468 cells), long isoform; assay type: cell-based; details: MDA-MB-468, n = 2
T1 construct: endogenous in cells; host or cells: MDA-MB-468
Description: (§1) BRD4 Degradation Assay Protocol Summary
(§2) MDA-MB-468 cells were cultured routinely in DMEM supplemented with 10% heat inactivated FBS and 1% Penicillin-Streptomycin (Thermofisher Scientific) at 37° C. 5% CO2. Cells were seeded in 6-well plates at 4*10^5 cells per well and left to adhere overnight. Example compounds were solubilised in DMSO to make 10 mM stocks followed by serial dilutions in DMSO to 200× final concentration. These were further diluted in culture media to give 20× treatment stocks before addition to cells to a 1× final concentration. Cells were then incubated at 37° C. 5% CO2 for 24 or 48 hours after which cells were lysed in RIPA buffer supplemented with cOmplete Mini Protease Inhibitor Cocktail and PhosSTOP™ (Roche). Lysates were clarified by centrifugation at 13,000 RPM for 10 minutes and the protein concentration of the resulting supernatants determined by BCA assay (ThermoFisher Scientific) as per manufacturer's instructions. Lysates were denatured and reduced in NuPAGE LDS sample buffer and sample reducing agent before 10 μg was loaded onto NuPAGE […] Tris-Acetate Mini Protein Gels (ThermoFisher Scientific). Protein was transferred to nitrocellulose membranes using a Trans-Blot Turbo Transfer System (Bio-Rad) before blocking for 1 hour in Intercept (TBS) Blocking Buffer (Li-Cor). Membranes were then incubated overnight with BRD4 (ab128874; Abcam) and α-tubulin (T6074; Sigma-Aldrich) antibodies diluted 1:2000 and 1:16,000 respectively in Tris-buffered saline 0.05% Tween 20 (TBS-T). The following day, membranes were washed with TBS-T before addition of anti-rabbit IRDye 800 CW and anti-mouse IRDye 680LT secondary antibodies (LiCor) (diluted 1:10,000 in TBS-T) for one hour. Membranes were then washed with TBS-T before imaging using a LICOR Odyssey Infrared Imaging System with Image Studio Ver 5.2 software (LiCor). Densitometry analysis was carried out in the LiCor image studio software where BRD4 signal was normalised to α-tubulin signal. Percentage degradation of BRD4 relative to the DMSO treated negative control was calculated as: =100−(signal of interest/signal of control sample*100). BRD4 degradation by dBET1 was used as positive control for each plate. Data obtained for the percentage degradation of BRD4 upon treatment with the Example compounds 1-6 and Comparative Example compounds 1-3 at 24 hour incubation are shown in Table 2 and with 48 hour incubation are shown in Table 3.

[2] = molecular target: T2, BRD4 (Homo sapiens, UniProt O60885); test: BRD4 degradation assay (Western blot, MDA-MB-468 cells), isoform not given; assay type: cell-based
T2 construct: endogenous in cells; host or cells: MDA-MB-468
Description: as §1
MDA-MB-468 cells were cultured routinely in DMEM supplemented with 10% heat inactivated FBS and 1% Penicillin-Streptomycin (Thermofisher Scientific) at 37° C. 5% CO2. Cells were seeded in 6-well plates at 4*10^5 cells per well and left to adhere overnight. Example compounds were solubilised in DMSO to make 10 mM stocks followed by serial dilutions in DMSO to 200× final concentration. These were further diluted in culture media to give 20× treatment stocks before addition to cells to a 1× final concentration. Cells were then incubated at 37° C. 5% CO2 for 24 or 48 hours after which cells were lysed in RIPA buffer supplemented with cOmplete Mini Protease Inhibitor Cocktail and PhosSTOP™ (Roche). Lysates were clarified by centrifugation at 13,000 RPM for 10 minutes and the protein concentration of the resulting supernatants determined by BCA assay (ThermoFisher Scientific) as per manufacturer's instructions. Lysates were denatured and reduced in NuPAGE LDS sample buffer and sample reducing agent before 10 μg was loaded onto NuPAGE […] Tris-Acetate Mini Protein Gels (ThermoFisher Scientific). […] Percentage degradation of BRD4 relative to the DMSO treated negative control was calculated as: =100−(signal of interest/signal of control sample*100). […]

[3] = tested on: NRF2 mediated gene NAD(P)H:quinone acceptor oxidoreductase 1 (NQO1) mRNA in BEAS-2B cells; test: Beas2B NQO1 mRNA cell based assay; details: Homo sapiens, 24 h, vs vehicle (0.1% DMSO), read-out: EC50 (increase in NQO1 mRNA)
Description: Beas2B NQO1 mRNA Cell Based Assay
The up-regulation of the NRF2 mediated gene NAD(P)H:quinone acceptor oxidoreductase 1 (NQO1) was measured using the following assay method: BEAS-2B cells (ATCC CRL-9609) were plated in 96-well clear plates at 20,000 cells/well in 75 μL of cell culture media and incubated overnight (37° C., 5% CO2). On day 2, 25 μL of compound or controls were added to the cells for 24 h. On day 3, the medium was aspirated from the plate and the Cells-to-CT™ 1-Step TaqMan® Kit (Ambion A25603) was used to perform expression analysis directly from cultured cells without RNA purification according to the manufacturer's instructions.
Briefly, cells were washed with ice cold PBS and 22.5 μL of room-temperature DNase/Lysis solution was added to the cells and incubated at room temperature for 5 minutes. To stop the reaction, 2.25 μL of stop solution was added to the cell lysate. The samples were diluted 1:5 using nuclease free water and 2.5 μL transferred into the PCR plate. Real-time PCR was performed using the C-1000 Thermal Cycler (Bio-Rad) using human beta actin as the internal control. The cDNA was amplified with a specific primer for NQO1 using the 1-step RT-PCR master mix (Ambion Cells-to-CT™ 1-Step TaqMan® Kit A25603). The primers/probes sets that were used for amplification of cDNA were obtained from TaqMan Gene Expression Assays (Applied Biosystems). The comparative CT (ΔΔCT) relative quantification method was used to calculate the relative mRNA level of the target gene NQO1 as described in the Applied Biosystems Chemistry Guide. The data are expressed as an increase in target gene mRNA compared to vehicle (0.1% DMSO) control and the EC50 values were determined by fitting the data to a four parameter logistic fit using XLfit or XE Runner within ActivityBase.

[4] = molecular target: T3, BRD4 short isoform (Homo sapiens, UniProt O60885); test: BRD4 degradation assay (Western blot, MDA-MB-468 cells), short isoform; assay type: cell-based; details: MDA-MB-468, n = 2
T3 construct: endogenous in cells; host or cells: MDA-MB-468
Description: as §1, §2

Structure (SMILES) | % Mean Degradation of BRD4 ([1]; 24 h, 0.01 μM) | % Mean Degradation of BRD4 ([1]; 24 h, 0.1 μM) | % Mean Degradation of BRD4 ([1]; 24 h, 1 μM) | % Mean Degradation of BRD4 ([1]; 48 h, 0.01 μM) | % Mean Degradation of BRD4 ([1]; 48 h, 0.1 μM) | % Mean Degradation of BRD4 ([1]; 48 h, 1 μM) | degradation of BRD4 ([2]; at 0.01 μM) | target protein (BRD4) degradation ([2]; at ≥0.1 μM) | EC50 [3] | % Mean Degradation of BRD4 ([4]; 24 h, 0.01 μM) | % Mean Degradation of BRD4 ([4]; 24 h, 0.1 μM) | % Mean Degradation of BRD4 ([4]; 24 h, 1 μM) | % Mean Degradation of BRD4 ([4]; 48 h, 0.01 μM) | % Mean Degradation of BRD4 ([4]; 48 h, 0.1 μM) | % Mean Degradation of BRD4 ([4]; 48 h, 1 μM) | % Mean Degradation of BRD4 ([1]; 24 h, 5 μM) | % Mean Degradation of BRD4 ([1]; 48 h, 5 μM) | % Mean Degradation of BRD4 ([4]; 24 h, 5 μM) | % Mean Degradation of BRD4 ([4]; 48 h, 5 μM)
Cc1sc2c(c1C)C(c1ccc(Cl)cc1)=N[C@@H](CC(=O)NCC(=O)NCCn1nnc(COc3ccc(Cl)c4c3[C@@H](CN3CC5(CC5)CC3=O)N(C(=O)[C@@H]3CCCC[C@]3(C)C(=O)O)CC4)c1C)c1nnc(C)n1-2 [Example 1, (1S,2R)-2-((S)-5-Chloro-8-((1-(2-(2-(2-((S)-4-(4-chlorophenyl)-2,3,9-trimethyl-6H-thieno[3,2-f][1,2,4]triazolo[4,3-a][1,4]diazepin-6-yl)acetamido)acetamido)ethyl)-5-methyl-1H-1,2,3-triazol-4-yl)methoxy)-1-((6-oxo-5-azaspiro[2.4]heptan-5-yl)methyl)-1,2,3,4-tetrahydroisoquinoline-2-carbonyl)-1-methylcyclohexane-1-carboxylic acid] | 75% | 99% | 101% | 74% | 97% | 99% | up to 75% | almost complete target protein degradation | 187 nM | 69% | 97% | 96% | 68% | 93% | 100% |  |  |  | 
Cc1sc2c(c1C)C(c1ccc(Cl)cc1)=N[C@@H](CC(=O)NCCOCCC(=O)NCCOCc1c(COc3ccc(Cl)c4c3[C@@H](CN3CC5(CC5)CC3=O)N(C(=O)[C@@H]3CCCC[C@]3(C)C(=O)O)CC4)nnn1C)c1nnc(C)n1-2 [Example 5, (1S,2R)-2-((S)-5-Chloro-8-((5-(14-((S)-4-(4-chlorophenyl)-2,3,9-trimethyl-6H-thieno[3,2-f][1,2,4]triazolo[4,3-a][1,4]diazepin-6-yl)-6,13-dioxo-2,9-dioxa-5,12-diazatetradecyl)-1-methyl-1H-1,2,3-triazol-4-yl)methoxy)-1-((6-oxo-5-azaspiro[2.4]heptan-5-yl)methyl)-1,2,3,4-tetrahydroisoquinoline-2-carbonyl)-1-methylcyclohexane-1-carboxylic acid] |  | 1% | 65% |  | 34% | 78% |  |  | 337 nM |  | −5% | 76% |  | 40% | 78% | 69% | 82% | 78% | 80%
CNC(=O)[C@@]1(C)CCCC[C@H]1C(=O)N1CCc2c(Cl)ccc(OCc3nnn(CCNC(=O)CNC(=O)C[C@@H]4N=C(c5ccc(Cl)cc5)c5c(sc(C)c5C)-n5c(C)nnc54)c3C)c2[C@H]1CN1CC2(CC2)CC1=O [Example 2] |  | 77% | 93% |  | 78% | 93% |  |  | 458 nM |  | 84% | 95% |  | 71% | 92% | 91% | 94% | 97% | 93%
Cc1sc2c(c1C)C(c1ccc(Cl)cc1)=N[C@@H](CC(=O)NCC(=O)NCCOCC(=O)N1CC[C@H](Oc3ccc(Cl)c4c3[C@@H](CN3CC5(CC5)CC3=O)N(C(=O)[C@@H]3CCCC[C@]3(C)C(=O)O)CC4)C1)c1nnc(C)n1-2 [Example 6, (1S,2R)-2-((S)-5-Chloro-8-(((S)-1-(2-(2-(2-(2-((S)-4-(4-chlorophenyl)-2,3,9-trimethyl-6H-thieno[3,2-f][1,2,4]triazolo[4,3-a][1,4]diazepin-6-yl)acetamido)acetamido)ethoxy)acetyl)pyrrolidin-3-yl)oxy)-1-((6-oxo-5-azaspiro[2.4]heptan-5-yl)methyl)-1,2,3,4-tetrahydroisoquinoline-2-carbonyl)-1-methylcyclohexane-1-carboxylic acid] |  | 9% | 52% |  | −27% | 43% |  |  | 2490 nM |  | 21% | 60% |  | 1% | 44% | 95% | 82% | 95% | 81%
